Assay results published in ChEMBL document CHEMBL1157286, “Schisandrene, a dibenzocyclooctadiene lignan from Schisandra chinensis: structure-antioxidant activity relationships of dibenzocyclooctadiene lignans” (J Nat Prod, 2006).
The source made the active and inactive calls. The calls are words filed in the database; no cut-off is given here.

These compounds were tested on HL-60 (assay: Antioxidant activity in human HL60 cells assessed as inhibition of TPA-stimulated hydrogen peroxide induced DCFH-DA oxidation by fluorometric microplate assay). Conditions: not given.
Type: functional, cell-based
With `COc1cc2c(c(OC)c1OC)-c1c(cc3c(c1OC)OCO3)C[C@H](C)[C@](C)(O)C2` the Activity was “inactive”. `C/C=C(/C)C(=O)Oc1c(OC)c(OC)cc2c1-c1c(cc(OC)c(OC)c1OC)CC(C)(O)C(C)C2` (centres undefined) [ANGELOYLGOMISIN] was tested, and the IC50 was 81.5 µM. `O=C1O[C@H]([C@@H](O)CO)C(O)=C1O` [ASCORBIC ACID] gave an IC50 of 10.2 µM. For `COc1cc2c(c(OC)c1OC)-c1c(cc(OC)c(OC)c1OC(=O)c1ccccc1)CC(C)C(C)(O)C2` (centres undefined) [BENZOYLGOMISIN H], the Activity was “inactive”. `C/C=C(\C)C(=O)O[C@H]1c2cc(OC)c(OC)c(OC)c2-c2c(cc3c(c2OC)OCO3)C[C@H](C)[C@]1(C)O` [GOMISIN B] was tested, and the IC50 was > 116 µM. `COc1cc2c(c(OC)c1OC)-c1c(cc3c(c1OC)OCO3)[C@H](OC(=O)c1ccccc1)[C@@](C)(O)[C@@H](C)C2` [GOMISIN G] gave an IC50 of 38.2 µM. For `COc1cc2c(c(O)c1OC)-c1c(cc(OC)c(OC)c1OC)CC(C)C(C)C2` (centres undefined) [GOMISIN K3], the IC50 was > 155 µM. `CC(Cc1ccc(O)c(O)c1)C(C)Cc1ccc(O)c(O)c1` (centres undefined) [NORDIHYDROGUAIARETIC ACID] was tested, and the IC50 was 2.3 µM. `C=C1[C@H](C)Cc2cc3c(c(OC)c2-c2c(cc4c(c2OC)OCO4)[C@H]1OC(=O)c1ccccc1)OCO3` [SCHISANDRENE] was tested, and the IC50 was 2.8 µM. In the case of `COc1cc2c(c(OC)c1OC)-c1c(cc(OC)c(OC)c1OC)C[C@H](C)[C@H](C)C2` [SCHISANDRIN A], the Activity is reported as “inactive”. `COc1c2c(cc3c1-c1c(cc4c(c1OC)OCO4)C[C@H](C)[C@H](C)C3)OCO2` [SCHISANDRIN C] was tested, and the Activity was “inactive”. `COc1cc2c(c(OC)c1OC)-c1c(cc(OC)c(OC)c1OC)C[C@](C)(O)[C@@H](C)C2` [SCHIZANDRIN] was tested, and the Activity was “inactive”. In the case of `C/C=C(\C)C(=O)Oc1c(OC)c(OC)cc2c1-c1c(cc(OC)c(OC)c1OC)C[C@](C)(O)[C@@H](C)C2` [TIGLOYLGOMISIN H], the IC50 is reported as > 125 µM. With `Cc1c(C)c2c(c(C)c1O)CCC(C)(C(=O)O)O2` (centres undefined) [TROLOX] the IC50 was 3.6 µM. For `COc1cc2c(c(OC)c1OC)-c1c(cc3c(c1OC)OCO3)C[C@H](C)[C@H](C)C2` [WUWEIZISU B], the Activity was “inactive”.

What follows are compounds tested on HL-60 (assay: Cytotoxicity against human HL60 cells by XTT assay). Conditions: not given.
Type: functional, cell-based
`COc1cc2c(c(OC)c1OC)-c1c(cc3c(c1OC)OCO3)C[C@H](C)[C@](C)(O)C2` was tested, and the Activity was “inactive”. For `C/C=C(/C)C(=O)Oc1c(OC)c(OC)cc2c1-c1c(cc(OC)c(OC)c1OC)CC(C)(O)C(C)C2` (centres undefined) [ANGELOYLGOMISIN], the IC50 was 45.3 µM. With `O=C1O[C@H]([C@@H](O)CO)C(O)=C1O` [ASCORBIC ACID] the Activity was “inactive”. With `COc1cc2c(c(OC)c1OC)-c1c(cc(OC)c(OC)c1OC(=O)c1ccccc1)CC(C)C(C)(O)C2` (centres undefined) [BENZOYLGOMISIN H] the IC50 was 41.2 µM. `C/C=C(\C)C(=O)O[C@H]1c2cc(OC)c(OC)c(OC)c2-c2c(cc3c(c2OC)OCO3)C[C@H](C)[C@]1(C)O` [GOMISIN B] was tested, and the Activity was “inactive”. `COc1cc2c(c(OC)c1OC)-c1c(cc3c(c1OC)OCO3)[C@H](OC(=O)c1ccccc1)[C@@](C)(O)[C@@H](C)C2` [GOMISIN G] was tested, and the IC50 was 48.3 µM. With `COc1cc2c(c(O)c1OC)-c1c(cc(OC)c(OC)c1OC)CC(C)C(C)C2` (centres undefined) [GOMISIN K3] the IC50 was 56.2 µM. Compound `CC(Cc1ccc(O)c(O)c1)C(C)Cc1ccc(O)c(O)c1` (centres undefined) [NORDIHYDROGUAIARETIC ACID] has an IC50 of 12.2 µM. In the case of `C=C1[C@H](C)Cc2cc3c(c(OC)c2-c2c(cc4c(c2OC)OCO4)[C@H]1OC(=O)c1ccccc1)OCO3` [SCHISANDRENE], the IC50 is reported as 55.8 µM. `COc1cc2c(c(OC)c1OC)-c1c(cc(OC)c(OC)c1OC)C[C@H](C)[C@H](C)C2` [SCHISANDRIN A] was tested, and the Activity was “inactive”. With `COc1c2c(cc3c1-c1c(cc4c(c1OC)OCO4)C[C@H](C)[C@H](C)C3)OCO2` [SCHISANDRIN C] the IC50 was 41.2 µM. For `COc1cc2c(c(OC)c1OC)-c1c(cc(OC)c(OC)c1OC)C[C@](C)(O)[C@@H](C)C2` [SCHIZANDRIN], the Activity was “inactive”. Compound `C/C=C(\C)C(=O)Oc1c(OC)c(OC)cc2c1-c1c(cc(OC)c(OC)c1OC)C[C@](C)(O)[C@@H](C)C2` [TIGLOYLGOMISIN H] has an IC50 of 44.3 µM. For `Cc1c(C)c2c(c(C)c1O)CCC(C)(C(=O)O)O2` (centres undefined) [TROLOX], the Activity was “inactive”. With `COc1cc2c(c(OC)c1OC)-c1c(cc3c(c1OC)OCO3)C[C@H](C)[C@H](C)C2` [WUWEIZISU B] the IC50 was 52.4 µM.

These compounds were tested on LLC-PK1 (assay: Cytotoxicity against pig LLC-PK1 cells upto 48 uM). Conditions: not given.
Type: cell-based, Sus scrofa
`C/C=C(/C)C(=O)Oc1c(OC)c(OC)cc2c1-c1c(cc(OC)c(OC)c1OC)CC(C)(O)C(C)C2` (centres undefined) [ANGELOYLGOMISIN] was tested, and the Activity was “Not Active”. With `COc1cc2c(c(OC)c1OC)-c1c(cc(OC)c(OC)c1OC(=O)c1ccccc1)CC(C)C(C)(O)C2` (centres undefined) [BENZOYLGOMISIN H] the Activity was “Not Active”. `COc1cc2c(c(OC)c1OC)-c1c(cc3c(c1OC)OCO3)C[C@H](C)[C@@](C)(O)C2` [GOMISIN A] was tested, and the Activity was “Not Active”. In the case of `C/C=C(/C)C(=O)O[C@H]1c2cc(OC)c(OC)c(OC)c2-c2c(cc3c(c2OC)OCO3)C[C@H](C)[C@]1(C)O` [GOMISIN B], the Activity is reported as “Not Active”. With `COc1cc2c(c(OC)c1OC)-c1c(cc3c(c1OC)OCO3)[C@H](OC(=O)c1ccccc1)[C@@](C)(O)[C@@H](C)C2` [GOMISIN G] the Activity was “Not Active”. In the case of `COc1cc2c(c(O)c1OC)-c1c(cc(OC)c(OC)c1OC)CC(C)C(C)C2` (centres undefined) [GOMISIN K3], the Activity is reported as “Not Active”. `C=C1[C@H](C)Cc2cc3c(c(OC)c2-c2c(cc4c(c2OC)OCO4)[C@H]1OC(=O)c1ccccc1)OCO3` [SCHISANDRENE] was tested, and the Activity was “Not Active”. In the case of `COc1cc2c(c(OC)c1OC)-c1c(cc(OC)c(OC)c1OC)C[C@H](C)[C@H](C)C2` [SCHISANDRIN A], the Activity is reported as “Not Active”. For `COc1c2c(cc3c1-c1c(cc4c(c1OC)OCO4)C[C@H](C)[C@H](C)C3)OCO2` [SCHISANDRIN C], the Activity was “Not Active”. `COc1cc2c(c(OC)c1OC)-c1c(cc(OC)c(OC)c1OC)C[C@](C)(O)[C@@H](C)C2` [SCHIZANDRIN] was tested, and the Activity was “Not Active”. `C/C=C(\C)C(=O)Oc1c(OC)c(OC)cc2c1-c1c(cc(OC)c(OC)c1OC)C[C@](C)(O)[C@@H](C)C2` [TIGLOYLGOMISIN H] was tested, and the Activity was “Not Active”. For `COc1cc2c(c(OC)c1OC)-c1c(cc3c(c1OC)OCO3)C[C@H](C)[C@H](C)C2` [WUWEIZISU B], the Activity was “Not Active”.

What follows are compounds tested on Vero (assay: Cytotoxicity against african green monkey Vero cells upto 48 uM). Conditions: chlorocebus sabaeus.
Type: cell-based
In the case of `C/C=C(/C)C(=O)Oc1c(OC)c(OC)cc2c1-c1c(cc(OC)c(OC)c1OC)CC(C)(O)C(C)C2` (centres undefined) [ANGELOYLGOMISIN], the Activity is reported as “Not Active”. In the case of `COc1cc2c(c(OC)c1OC)-c1c(cc(OC)c(OC)c1OC(=O)c1ccccc1)CC(C)C(C)(O)C2` (centres undefined) [BENZOYLGOMISIN H], the Activity is reported as “Not Active”. For `COc1cc2c(c(OC)c1OC)-c1c(cc3c(c1OC)OCO3)C[C@H](C)[C@@](C)(O)C2` [GOMISIN A], the Activity was “Not Active”. In the case of `C/C=C(/C)C(=O)O[C@H]1c2cc(OC)c(OC)c(OC)c2-c2c(cc3c(c2OC)OCO3)C[C@H](C)[C@]1(C)O` [GOMISIN B], the Activity is reported as “Not Active”. In the case of `COc1cc2c(c(OC)c1OC)-c1c(cc3c(c1OC)OCO3)[C@H](OC(=O)c1ccccc1)[C@@](C)(O)[C@@H](C)C2` [GOMISIN G], the Activity is reported as “Not Active”. With `COc1cc2c(c(O)c1OC)-c1c(cc(OC)c(OC)c1OC)CC(C)C(C)C2` (centres undefined) [GOMISIN K3] the Activity was “Not Active”. For `C=C1[C@H](C)Cc2cc3c(c(OC)c2-c2c(cc4c(c2OC)OCO4)[C@H]1OC(=O)c1ccccc1)OCO3` [SCHISANDRENE], the Activity was “Not Active”. With `COc1cc2c(c(OC)c1OC)-c1c(cc(OC)c(OC)c1OC)C[C@H](C)[C@H](C)C2` [SCHISANDRIN A] the Activity was “Not Active”. With `COc1c2c(cc3c1-c1c(cc4c(c1OC)OCO4)C[C@H](C)[C@H](C)C3)OCO2` [SCHISANDRIN C] the Activity was “Not Active”. In the case of `COc1cc2c(c(OC)c1OC)-c1c(cc(OC)c(OC)c1OC)C[C@](C)(O)[C@@H](C)C2` [SCHIZANDRIN], the Activity is reported as “Not Active”. For `C/C=C(\C)C(=O)Oc1c(OC)c(OC)cc2c1-c1c(cc(OC)c(OC)c1OC)C[C@](C)(O)[C@@H](C)C2` [TIGLOYLGOMISIN H], the Activity was “Not Active”. For `COc1cc2c(c(OC)c1OC)-c1c(cc3c(c1OC)OCO3)C[C@H](C)[C@H](C)C2` [WUWEIZISU B], the Activity was “Not Active”.
